Consider 16 molecules from patent US20260317299A1, “PIKFYVE PROTEIN KINASE DEGRADATION AGENT AND USE THEREOF” (Shanghai Institute of Organic Chemistry, Chinese Academy of …, priority 2023, published 2026).

T1 sequence (Q9Y2I7 whole entry): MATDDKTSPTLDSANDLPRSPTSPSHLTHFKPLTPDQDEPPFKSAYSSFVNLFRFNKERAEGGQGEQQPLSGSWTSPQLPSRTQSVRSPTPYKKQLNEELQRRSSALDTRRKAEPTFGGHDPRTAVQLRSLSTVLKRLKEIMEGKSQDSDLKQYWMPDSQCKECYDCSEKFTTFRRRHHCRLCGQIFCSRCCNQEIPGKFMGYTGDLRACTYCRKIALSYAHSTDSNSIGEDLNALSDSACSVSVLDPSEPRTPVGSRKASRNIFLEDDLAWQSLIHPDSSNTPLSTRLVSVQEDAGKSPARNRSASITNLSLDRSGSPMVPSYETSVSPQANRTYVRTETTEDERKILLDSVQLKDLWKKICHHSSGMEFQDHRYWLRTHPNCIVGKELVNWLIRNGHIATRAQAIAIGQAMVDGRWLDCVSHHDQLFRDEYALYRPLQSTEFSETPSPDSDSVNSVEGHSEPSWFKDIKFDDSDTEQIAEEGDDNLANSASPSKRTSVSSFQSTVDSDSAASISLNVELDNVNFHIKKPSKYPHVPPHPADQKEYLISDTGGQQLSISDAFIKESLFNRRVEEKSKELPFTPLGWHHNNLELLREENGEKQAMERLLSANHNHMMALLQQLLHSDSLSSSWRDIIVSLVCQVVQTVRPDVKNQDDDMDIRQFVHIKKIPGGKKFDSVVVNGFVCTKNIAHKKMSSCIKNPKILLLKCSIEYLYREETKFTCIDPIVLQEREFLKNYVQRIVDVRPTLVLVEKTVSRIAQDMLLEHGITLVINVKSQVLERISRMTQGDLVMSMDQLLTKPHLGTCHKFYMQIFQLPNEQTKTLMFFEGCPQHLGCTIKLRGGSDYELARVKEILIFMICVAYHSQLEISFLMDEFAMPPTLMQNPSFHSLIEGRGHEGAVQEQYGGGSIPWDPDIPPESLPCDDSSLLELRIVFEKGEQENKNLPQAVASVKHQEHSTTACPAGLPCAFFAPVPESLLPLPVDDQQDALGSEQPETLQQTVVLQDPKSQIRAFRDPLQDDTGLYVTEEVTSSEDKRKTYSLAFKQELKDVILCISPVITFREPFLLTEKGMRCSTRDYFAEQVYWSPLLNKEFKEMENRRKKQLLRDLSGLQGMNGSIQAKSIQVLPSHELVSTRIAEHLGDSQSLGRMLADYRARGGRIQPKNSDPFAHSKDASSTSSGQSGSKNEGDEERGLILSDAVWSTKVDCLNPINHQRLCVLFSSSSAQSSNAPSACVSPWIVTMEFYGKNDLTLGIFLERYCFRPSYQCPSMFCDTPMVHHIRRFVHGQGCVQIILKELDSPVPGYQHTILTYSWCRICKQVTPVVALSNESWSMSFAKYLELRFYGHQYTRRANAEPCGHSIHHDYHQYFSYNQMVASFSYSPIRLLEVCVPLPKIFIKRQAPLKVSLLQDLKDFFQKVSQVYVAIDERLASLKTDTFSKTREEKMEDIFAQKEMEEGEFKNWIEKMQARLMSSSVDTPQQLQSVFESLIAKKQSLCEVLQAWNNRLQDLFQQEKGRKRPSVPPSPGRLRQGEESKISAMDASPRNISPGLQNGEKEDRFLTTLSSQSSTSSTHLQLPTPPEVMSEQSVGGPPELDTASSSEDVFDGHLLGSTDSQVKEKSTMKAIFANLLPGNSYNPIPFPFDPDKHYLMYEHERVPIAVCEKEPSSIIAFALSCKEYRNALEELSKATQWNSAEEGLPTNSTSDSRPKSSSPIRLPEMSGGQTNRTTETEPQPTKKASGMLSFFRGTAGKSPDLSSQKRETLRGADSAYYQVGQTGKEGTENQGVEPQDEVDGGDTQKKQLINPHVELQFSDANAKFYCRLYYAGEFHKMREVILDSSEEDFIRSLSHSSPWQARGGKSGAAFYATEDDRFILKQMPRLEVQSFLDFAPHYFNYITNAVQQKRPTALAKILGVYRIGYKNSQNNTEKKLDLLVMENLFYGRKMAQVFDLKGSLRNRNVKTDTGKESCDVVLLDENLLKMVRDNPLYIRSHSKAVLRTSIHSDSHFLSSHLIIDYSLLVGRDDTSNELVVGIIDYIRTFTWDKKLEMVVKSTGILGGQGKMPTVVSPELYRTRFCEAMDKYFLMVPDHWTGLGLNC

The test addresses T1, PIKfyve (Homo sapiens, UniProt Q9Y2I7).
T1 construct: endogenous in cells; host or cells: VCaP
Briefly: Degradation of PIKfyve proteins in VCaP tumor cells (24 h, Western blot). The class given is cell-based. As to conditions: 37° C., compared with DMSO control, WB, read-out: DC50 (concentration that achieves 50% degradation activity). The protocol:
Method: 200 μL of cells at a density of 5×10^6 cells/ml were inoculated into a 6-well plate, and then different concentrations of drugs were added. The cells were treated at 37° C. for 24 h. The […] was collected and washed with PBS twice. Then, 100-200 μL of 1×SDS lysate was added, and the cell lysate was collected into a centrifuge tube. The cells were disrupted ultrasonically for 10-20 sec, and boiled for 10 min. Protein samples were subjected to SDS-PAGE electrophoresis at a voltage of 90 V, transferred to PVDF membranes at 110 V, blocked with 5% BSA for 4 h, incubated with primary antibodies (PIKfyve, GAPDH) at 4° C. overnight, and incubated with secondary antibodies (anti-Rabbit IgG or anti-Mouse IgG) at room temperature. The membranes were washed with TBST buffer, developed with an ECL developing solution, and then imaged to obtain protein band signals, with single-concentration WB results as shown in FIG. 1. Compared with the DMSO control group, the concentration that achieves 50% degradation activity is defined as DC50.
(Immunoblotting shows a protein as a band on a membrane.)
Take `Cc1cccc(/C=N/Nc2cc(N3CCOCC3)nc(OCCNC(=O)CCCCCCCCC(=O)N[C@H](C(=O)N3C[C@H](O)C[C@H]3C(=O)NCc3ccc(-c4scnc4C)cc3)C(C)(C)C)n2)c1` [Example 64, N^1—((S)-1-((2S,4R)-4-hydroxy-2-((4-(4-methylthiazol-5-yl)benzyl)carbamoyl)pyrrolidine-1-yl)-3,3-dimethyl-1-oxobutan-2-yl)-N^10-(2-((4-(2-((E)-3-methylbenzylidene) hydrazino)-6-morpholinopyrimidin-2-yl)oxy)ethyl)decanediamide]: the DC50 lay within 100 to 10000 nM.

With `Cc1cccc(/C=N/Nc2cc(N3CCOCC3)nc(OCCc3ccc(NC(=O)CCCCC(=O)Nc4ccc5c(c4)C(=O)N(C4CCC(=O)NC4=O)C5)cc3)n2)c1` (stereo not shown) [Example 29, (E)-N^1-(2-(2,6-dioxopiperidin-3-yl)-3-oxoisoindolin-5-yl)-N^6-(4-(2-((4-(2-(3-methylbenzylidene)hydrazino)-6-morpholinopyrimidin-2-yl)oxy)ethyl)phenyl)adipamide], the DC50 fell in the range of 1 to 100 nM.

On to `Cc1cccc(/C=N/Nc2cc(N3CCOCC3)nc(OCCc3ccc(NC(=O)COc4cc(-c5scnc5C)ccc4CNC(=O)[C@@H]4C[C@@H](O)CN4C(=O)[C@@H](NC(=O)C4(F)CC4)C(C)(C)C)cc3)n2)c1` [Example 53, (2S,4R)-1-((S)-2-(1-fluorocyclopropane-1-carboxamido)-3,3-dimethylbutanoyl)-4-hydroxy-N-(2-(2-((4-(2-((4-(2-((E)-3-methylbenzylidene)hydrazino)-6-morpholinopyrimidin-2-yl)oxy)ethyl)phenyl)amino)-2-oxoethoxy)-4-(4-methylthiazol-5-yl)benzyl)pyrrolidine-2-carboxamide], for which the DC50 lay in the range of 1 to 100 nM.

As for `Cc1cccc(-c2ccn(-c3cc(N4CCOCC4)nc(OC4CCN(c5ccc(N6CCN(C(=O)CC[C@H](NC(=O)[C@@H]7C[C@@H](O)CN7C(=O)[C@@H](NC(=O)C7(F)CC7)C(C)(C)C)c7ccc(-c8scnc8C)cc7)CC6)cc5)CC4)n3)n2)c1` [Example 85, (2S,4R)-1-((S)-2-(1-fluorocyclopropane-1-carboxamido)-3,3-dimethylbutanoyl)-4-hydroxy-N—((S)-1-(4-(4-methylthiazol-5-yl)phenyl)-4-(4-(4-(4-((4-morpholino-6-(3-(m-tolyl)-1H-pyrazol-1-yl)pyrimidin-2-yl)oxy)piperidin-1-yl)phenyl)piperazin-1-yl)-4-oxobutyl) pyrrolidine-2-carboxamide], the DC50 was 1 to 100 nM.

`Cc1cccc(-c2ccn(-c3cc(N4CCOCC4)nc(OC4CCN(c5ccc(NC(=O)NC6CN(c7cc8c(cc7F)C(=O)N(C7CCC(=O)NC7=O)C8=O)C6)cc5)CC4)n3)n2)c1` (stereo not shown) [Example 93, 1-(1-(2-(2,6-Dioxopiperidin-3-yl)-6-fluoro-1,3-dioxoisoindolin-5-yl)azetidin-3-yl)-3-(4-(4-((4-morpholino-6-(3-(m-tolyl)-1H-pyrazol-1-yl)pyrimidin-2-yl)oxy)piperidin-1-yl)phenyl)urea]: the DC50 is 100 to 10000 nM.

`Cc1cccc(-c2ccn(-c3cc(N4CCOCC4)nc(OCCc4ccc(-c5ccc(NC(=O)C[C@H](NC(=O)[C@@H]6C[C@@H](O)CN6C(=O)[C@@H](NC(=O)C6(F)CC6)C(C)(C)C)c6ccc(-c7scnc7C)cc6)cc5)cc4)n3)n2)c1` [Example 87, (2S,4R)-1-((S)-2-(1-fluorocyclopropane-1-carboxamido)-3,3-dimethylbutanoyl)-4-hydroxy-N—((S)-1-(4-(4-methylthiazol-5-yl)phenyl)-3-((4′-(2-((4-morpholino-6-(3-(m-tolyl)-1H-pyrazol-1-yl)pyrimidin-2-yl)oxy)ethyl)-[1,1′-biphenyl]-4-yl)amino)-3-oxopropyl)pyrrolidine-2-carboxamide]: the DC50 was in the range of 1 to 100 nM.

Consider `Cc1cccc(/C=N/Nc2cc(N3CCOCC3)nc(OCCc3ccc(NC(=O)CCCCCCC(=O)Nc4cccc5c4CN(C4CCC(=O)NC4=O)C5=O)cc3)n2)c1` (stereo not shown) [Example 21, (E)-N^1-(2-(2,6-dioxopiperidin-3-yl)-1-oxoisoindolin-4-yl)-N^8-(4-(2-((4-(2-(3-methylbenzylidene)hydrazino)-6-morpholinopyrimidin-2-yl)oxy)ethyl)phenyl)octanediamide], for which the DC50 was 1 to 100 nM.

Consider `Cc1cccc(/C=N/Nc2cc(N3CCOCC3)nc(OCCc3ccc(NC(=O)CCC(=O)Nc4cccc5c4C(=O)N(C4CCC(=O)NC4=O)C5)cc3)n2)c1` (stereo not shown) [Example 32, (E)-N^1-(2-(2,6-dioxopiperidin-3-yl)-3-oxoisoindolin-4-yl)-N^4-(4-(2-((4-(2-(3-methylbenzylidene)hydrazino)-6-morpholinopyrimidin-2-yl)oxy)ethyl)phenyl)succinimide], for which the DC50 is 1 to 100 nM.

For `Cc1cccc(/C=N/Nc2cc(N3CCOCC3)nc(OCCc3ccc(NC(=O)CNC(=O)CSC(C)(C)[C@H](NC(=O)C4(F)CC4)C(=O)N4C[C@H](O)C[C@H]4C(=O)NCc4ccc(-c5scnc5C)cc4)cc3)n2)c1` [Example 58, (2S,4R)-1-((R)-2-(1-fluorocyclopropane-1-carboxamido)-3-methyl-3-((2-((2-((4-(2-((4-(2-((E)-3-methylbenzylidene)hydrazino)-6-morpholinopyrimidin-2-yl)oxy)ethyl)phenyl)amino)-2-oxoethyl)amino)-2-oxoethyl)thio)butanoyl)-4-hydroxy-N-(4-(4-methylthiazol-5-yl)benzyl)pyrrolidine-2-carboxamide], the DC50 was in the range of 100 to 10000 nM.

Consider `Cc1cccc(/C=N/Nc2cc(N3CCOCC3)nc(OCCc3ccc(NC(=O)CC[C@H](NC(=O)[C@@H]4C[C@@H](O)CN4C(=O)[C@@H](NC(=O)C4(F)CC4)C(C)(C)C)c4ccc(-c5scnc5C)cc4)cc3)n2)c1` [Example 49, (2S,4R)-1-((S)-2-(1-fluorocyclopropane-1-carboxamido)-3,3-dimethylbutanoyl)-4-hydroxy-N—((S)-4-((4-(2-((4-(2-((E)-3-methylbenzylidene)hydrazino)-6-morpholinopyrimidin-2-yl)oxy)ethyl)phenyl)amino)-1-(4-(4-methylthiazol-5-yl)phenyl)4-oxobutyl)pyrrolidine-2-carboxamide], for which the DC50 is 1 to 100 nM.

Take `Cc1cccc(/C=N/Nc2cc(N3CCOCC3)nc(OCCc3ccc(NC(=O)CCCCC(=O)Nc4ccc5c(c4)CN(C4CCC(=O)NC4=O)C5=O)cc3)n2)c1` (stereo not shown) [Example 25, (E)-N^1-(2-(2,6-dioxopiperidin-3-yl)-1-oxoisoindolin-5-yl)-N^6-(4-(2-((4-(2-(3-methylbenzylidene)hydrazino)-6-morpholinopyrimidin-2-yl)oxy)ethyl)phenyl)adipamide]: the DC50 lay in the range of 100 to 10000 nM.

For the molecule `Cc1cccc(/C=N/Nc2cc(N3CCOCC3)nc(OCCc3ccc(NC(=O)CCC(=O)N[C@H](C(=O)N4C[C@H](O)C[C@H]4C(=O)NCc4ccc(-c5scnc5C)cc4)C(C)(C)C)cc3)n2)c1` [Example 37, N^1—((S)-1-((2S,4R)-4-hydroxy-2-((4-(4-methylthiazol-5-yl)benzyl)carbamoyl)pyrrolidine-1-yl)-3,3-dimethyl-1-oxobutan-2-yl)-N^4-(4-(2-((4-(2-((E)-3-methylbenzylidene) hydrazino)-6-morpholinopyrimidin-2-yl)oxy)ethyl)phenyl)succinimide], the DC50 is 100 to 10000 nM.

As to `Cc1cccc(/C=N/Nc2cc(N3CCOCC3)nc(OCCc3ccc(NC(=O)CNC(=O)COc4cc(-c5scnc5C)ccc4CNC(=O)[C@@H]4C[C@@H](O)CN4C(=O)[C@@H](NC(=O)C4(F)CC4)C(C)(C)C)cc3)n2)c1` [Example 54, (2S,4R)-1-((S)-2-(1-fluorocyclopropane-1-carboxamido)-3,3-dimethylbutanoyl)-4-hydroxy-N-(2-(2-((2-((4-(2-((4-(2-((E)-3-methylbenzylidene)hydrazino)-6-morpholinopyrimidin-2-yl)oxy)ethyl)phenyl)amino)-2-oxoethyl)amino)-2-oxoethoxy)-4-(4-methylthiazol-5-yl)benzyl)pyrrolidine-2-carboxamide], the DC50 was 1 to 100 nM.

`Cc1cccc(/C=N/Nc2cc(N3CCOCC3)nc(OCCNC(=O)CCCCCCC(=O)N[C@H](C(=O)N3C[C@H](O)C[C@H]3C(=O)NCc3ccc(-c4scnc4C)cc3)C(C)(C)C)n2)c1` [Example 63, N^1—((S)-1-((2S,4R)-4-hydroxy-2-((4-(4-methylthiazol-5-yl)benzyl)carbamoyl)pyrrolidine-1-yl)-3,3-dimethyl-1-oxobutan-2-yl)-N-(2-((4-(2-((E)-3-methylbenzylidene) hydrazino)-6-morpholinopyrimidin-2-yl)oxy)ethyl)octanediamide]: the DC50 was 100 to 10000 nM.

Consider `Cc1cccc(-c2ccn(-c3cc(N4CCOCC4)nc(OC4CCN(c5ccc(NC(=O)CCCC[C@H](NC(=O)[C@@H]6C[C@@H](O)CN6C(=O)[C@@H](NC(=O)C6(F)CC6)C(C)(C)C)c6ccc(-c7scnc7C)cc6)cc5)CC4)n3)n2)c1` [Example 69, (2S,4R)-1-((S)-2-(1-fluorocyclopropane-1-carboxamido)-3,3-dimethylbutanoyl)-4-hydroxy-N—((S)-1-(4-(4-methylthiazol-5-yl)phenyl)-6-((4-(4-((4-morpholino-6-(3-(m-tolyl)-1H-pyrazol-1-yl)pyrimidin-2-yl)oxy)piperidin-1-yl)phenyl)amino)-6-oxohexyl)pyrrolidine-2-carboxamide], for which the DC50 lay within 1 to 100 nM.

For the molecule `Cc1cccc(-c2ccn(-c3cc(N4CCOCC4)nc(Oc4ccc(N5CCC(N6CCN(c7cc8c(cc7F)C(=O)N(C7CCC(=O)NC7=O)C8=O)CC6)CC5)cc4)n3)n2)c1` (stereo not shown) [Example 94, 2-(2,6-Dioxopiperidin-3-yl)-5-fluoro-6-(4-(1-(4-((4-morpholino-6-(3-(m-tolyl)-1H-pyrazol-1-yl)pyrimidin-2-yl)oxy)phenyl)piperidin-4-yl)piperazin-1-yl)isoindoline-1,3-dione], the DC50 lay in the range of 100 to 10000 nM.
